Results from ChEMBL document CHEMBL1122107, “Structure-antitumor activity relationships of 9-anilinoacridines using pattern recognition” (1982).
Several values for one entry are separate records, joined by “and”; a condition that tells them apart may be missing. Identical values can stand only once.

System: L1210
Assay: Tumor cell selectivity determined as maximal percent increase in life span (ILSmax) at LD10 dosage level in L1210 cells
Format: functional, Mus musculus

CCCCCS(=O)(=O)Nc1ccc(Nc2c3ccccc3nc3c(C(=O)NCCCC)cccc23)c(OC)c1
ILSmax: 45%

Nc1ccc(S(=O)(=O)Nc2ccc(Nc3c4ccccc4nc4ccccc34)cc2)cc1
ILSmax: 100%

CS(=O)(=O)N1CCN(c2ccc(Nc3c4ccccc4nc4ccccc34)cc2)CC1
ILSmax: 70%

NC(=O)CCCCCCCCc1ccc(Nc2c3ccccc3nc3ccccc23)cc1
ILSmax: 26%

CS(=O)(=O)Nc1ccc(Nc2c3ccccc3nc3ccccc23)c(N)c1
ILSmax: 105%

O=C(O)CCCCCc1ccc(Nc2c3ccccc3nc3ccccc23)cc1
ILSmax: 200%

COc1cc(NS(C)(=O)=O)ccc1Nc1c2ccccc2nc2c(OC)cccc12
ILSmax: 110%

Nc1ccc(Nc2c3ccccc3nc3cc([N+](=O)[O-])ccc23)cc1
ILSmax: 30%

CCN(CC)/N=N/c1ccc2c(Nc3ccc(NS(C)(=O)=O)cc3)c3ccccc3nc2c1
ILSmax: 95%

O=C(O)c1ccc(Nc2c3ccccc3nc3ccccc23)cc1
ILSmax: 90%

COc1cccc(Nc2c3ccccc3nc3ccccc23)c1
ILSmax: 25%

CCCCOc1cccc2c(Nc3ccc(NS(C)(=O)=O)cc3OC)c3ccccc3nc12
ILSmax: 80%

COc1ccc2c(Nc3ccc(NS(C)(=O)=O)cc3)c3ccc([N+](=O)[O-])cc3nc2c1
ILSmax: 60%

CC(C(N)=O)S(=O)(=O)Nc1ccc(Nc2c3ccccc3nc3ccccc23)cc1 (stereo unspecified)
ILSmax: 25%

COc1cc(NS(C)(=O)=O)ccc1Nc1c2ccccc2nc2cc(N)ccc12
ILSmax: 102%

CC(=O)Nc1ccc2c(Nc3ccc(NS(C)(=O)=O)cc3)c3ccc([N+](=O)[O-])cc3nc2c1
ILSmax: 141%

Cc1ccc2nc3ccccc3c(Nc3ccc(NS(C)(=O)=O)cc3)c2c1
ILSmax: 25%

CCCCCCS(=O)(=O)Nc1ccc(Nc2c3ccccc3nc3ccccc23)c(OC)c1
ILSmax: 66%

O=S(=O)(CCl)Nc1ccc(Nc2c3ccccc3nc3ccccc23)cc1
ILSmax: 55%

CNc1ccc2c(Nc3ccc(C(=O)O)cc3)c3ccccc3nc2c1
ILSmax: 25%

CS(=O)(=O)Nc1ccc(Nc2c3ccccc3nc3ccccc23)cn1
ILSmax: 141%

Nc1ccc2c(=Nc3ccc(S(N)(=O)=O)cc3)c3ccc(N)cc3[nH]c2c1
ILSmax: 60%

CCCCCS(=O)(=O)Nc1ccc(Nc2c3ccccc3nc3cc([N+](=O)[O-])ccc23)c(OC)c1
ILSmax: 72%

CCCC(=O)N(c1ccc(Nc2c3ccccc3nc3c(C)cccc23)cc1)S(C)(=O)=O
ILSmax: 75%

CCN(CC)c1ccc(Nc2c3ccccc3nc3ccccc23)cc1
ILSmax: 25%

CC(C)(C)c1ccccc1Nc1c2ccccc2nc2ccccc12
ILSmax: 25%

O=C(Nc1ccc(Nc2c3ccccc3nc3ccccc23)cc1)OCC(O)CO (stereo unspecified)
ILSmax: 70%

COc1cc(NS(C)(=O)=O)ccc1Nc1c2ccccc2nc2cc(C)ccc12
ILSmax: 168%

CC(=O)Nc1ccccc1Nc1c2ccccc2nc2ccccc12
ILSmax: 25%

COc1cccc2c(Nc3ccc(NS(C)(=O)=O)cc3)c3ccc(N)cc3nc12
ILSmax: 100%

COc1ccccc1Nc1c2ccccc2nc2ccccc12
ILSmax: 25%

NCc1ccc(Nc2c3ccccc3nc3cc([N+](=O)[O-])ccc23)cc1
ILSmax: 25%

CCCCS(=O)(=O)Nc1ccc(Nc2c3ccccc3nc3c(OC)cccc23)c(OC)c1
ILSmax: 63%

CC(=O)Nc1ccc2c(Nc3ccc(NS(=O)(=O)CCCNC(=N)N)cc3)c3ccc([N+](=O)[O-])cc3nc2c1
ILSmax: 160%

CS(=O)(=O)Nc1ccccc1Nc1c2ccccc2nc2ccccc12
ILSmax: 25%

CNc1ccc2c(Nc3ccc(NS(C)(=O)=O)cc3)c3cccc(C)c3nc2c1C
ILSmax: 70%

O=C(O)c1ccc(/C=C/c2ccc(Nc3c4ccccc4nc4ccccc34)cc2)cc1
ILSmax: 158%

Cc1cc(NS(C)(=O)=O)ccc1Nc1c2ccccc2nc2c(N)cccc12
ILSmax: 120%

COc1cc(N)ccc1Nc1c2ccccc2nc2ccccc12
ILSmax: 25% and 66%

CCCNc1ccc(Nc2c3ccccc3nc3ccccc23)cc1
ILSmax: 25%

COc1ccc2c(Nc3ccc(NS(C)(=O)=O)cc3)c3cccc(C)c3nc2c1
ILSmax: 75%
